Laboratory results: ChEMBL document CHEMBL3860091, “Synthesis and activity of newly designed aroxyalkyl or aroxyethoxyethyl derivatives of piperazine on the cardiovascular and the central nervous systems” (Bioorg Med Chem Lett, 2016)

Legend:
[1] = species on record: Rattus norvegicus; assay: Selectivity ratio of Ki for rat brain cerebral cortex alpha2 adrenergic receptor to Ki for rat brain cerebral cortex alpha1 adrenergic receptor
[2] = system: Rattus norvegicus; assay: Hypotensive activity in normotensive anesthetized Wistar rat assessed as systolic blood pressure at 1 mg/kg, iv measured 60 mins post dose (reference value: 107.4 to 148.3 mmHg); assay type: functional
[3] = molecular target: T1, Adrenergic receptor alpha-1 (Rattus norvegicus, UniProt P15823+P23944+P43140); assay: Displacement of [3H]prazosin from alpha1 adrenergic receptor in rat brain cerebral cortex after 30 mins by microbeta scintillation counting method; assay type: tissue-based
T1 sequence (P15823 whole entry): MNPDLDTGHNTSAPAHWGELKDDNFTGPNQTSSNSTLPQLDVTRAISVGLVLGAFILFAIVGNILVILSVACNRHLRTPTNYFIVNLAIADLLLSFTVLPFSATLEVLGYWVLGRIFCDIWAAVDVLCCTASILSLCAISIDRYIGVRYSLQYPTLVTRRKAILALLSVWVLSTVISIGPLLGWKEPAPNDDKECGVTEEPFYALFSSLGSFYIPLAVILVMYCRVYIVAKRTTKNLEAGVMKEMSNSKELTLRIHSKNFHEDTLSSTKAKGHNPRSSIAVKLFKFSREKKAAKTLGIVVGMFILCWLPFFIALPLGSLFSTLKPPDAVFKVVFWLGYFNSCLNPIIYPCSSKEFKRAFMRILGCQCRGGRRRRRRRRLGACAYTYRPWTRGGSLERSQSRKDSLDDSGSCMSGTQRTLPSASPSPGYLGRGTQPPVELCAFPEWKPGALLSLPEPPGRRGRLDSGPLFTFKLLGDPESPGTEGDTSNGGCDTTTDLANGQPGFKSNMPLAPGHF
T1 sequence (P23944 whole entry): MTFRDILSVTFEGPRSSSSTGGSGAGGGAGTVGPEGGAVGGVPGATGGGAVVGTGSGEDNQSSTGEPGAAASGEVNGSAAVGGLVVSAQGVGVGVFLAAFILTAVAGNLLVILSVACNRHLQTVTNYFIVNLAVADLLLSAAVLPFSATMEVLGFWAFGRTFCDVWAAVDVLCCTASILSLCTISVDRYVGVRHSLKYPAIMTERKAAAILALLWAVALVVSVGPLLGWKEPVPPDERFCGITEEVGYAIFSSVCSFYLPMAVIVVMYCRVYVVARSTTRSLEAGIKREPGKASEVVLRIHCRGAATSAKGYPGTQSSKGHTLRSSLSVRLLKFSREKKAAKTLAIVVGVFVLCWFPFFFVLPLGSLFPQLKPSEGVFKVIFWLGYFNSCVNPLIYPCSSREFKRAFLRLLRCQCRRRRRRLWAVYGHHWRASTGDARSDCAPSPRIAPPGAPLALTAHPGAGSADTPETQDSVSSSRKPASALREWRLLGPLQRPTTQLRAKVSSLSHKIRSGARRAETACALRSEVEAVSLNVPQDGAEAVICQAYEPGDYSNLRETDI
T1 sequence (P43140 whole entry): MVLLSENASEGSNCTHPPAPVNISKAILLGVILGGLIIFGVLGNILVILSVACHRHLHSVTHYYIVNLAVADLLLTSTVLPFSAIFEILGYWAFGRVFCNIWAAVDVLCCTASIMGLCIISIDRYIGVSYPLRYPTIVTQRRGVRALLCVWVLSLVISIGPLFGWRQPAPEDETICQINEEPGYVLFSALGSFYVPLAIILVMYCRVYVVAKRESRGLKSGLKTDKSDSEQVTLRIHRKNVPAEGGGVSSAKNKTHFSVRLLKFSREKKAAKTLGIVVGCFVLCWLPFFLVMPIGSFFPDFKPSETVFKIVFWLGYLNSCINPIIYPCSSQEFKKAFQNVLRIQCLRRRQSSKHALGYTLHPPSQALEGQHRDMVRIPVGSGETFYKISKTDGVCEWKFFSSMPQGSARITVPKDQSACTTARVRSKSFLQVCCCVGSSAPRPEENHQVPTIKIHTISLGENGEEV

[4] = Antidepressant-like activity in albino Swiss (CD-1) mouse assessed as immobility time at 5 mg/kg, ip administered 30 mins prior to test measured for last 4 mins of 6 mins observation by forced swim test (reference value: 178.3 +/- 12.3 sec); assay type: functional, organism-based
[5] = system: Mus musculus; assay: Toxicity in albino Swiss (CD-1) mouse assessed as effect on spontaneous locomotor activity by measuring number of crossings at 5 mg/kg, ip administered 30 mins prior to test measured for last 4 mins of 6 mins observation (reference value: 191.5 to 225.4); assay type: organism-based; conditions: in vivo
[6] = system: Rattus norvegicus; assay: Hypotensive activity in normotensive anesthetized Wistar rat assessed as systolic blood pressure at 0.5 mg/kg, iv measured 10 mins post dose (reference value: 107.4 to 148.3 mmHg); assay type: functional
[7] = system: Rattus norvegicus; assay: Hypotensive activity in normotensive anesthetized Wistar rat assessed as diastolic blood pressure at 0.5 mg/kg, iv measured 60 mins post dose (reference value: 81.6 to 115.2 mmHg); assay type: functional
[8] = system: Rattus norvegicus; assay: Hypotensive activity in normotensive anesthetized Wistar rat assessed as diastolic blood pressure at 0.1 mg/kg, iv measured 20 mins post dose (reference value: 81.6 to 115.2 mmHg); assay type: functional
[9] = system: Rattus norvegicus; assay: Hypotensive activity in normotensive anesthetized Wistar rat assessed as diastolic blood pressure at 0.1 mg/kg, iv measured 60 mins post dose (reference value: 81.6 to 115.2 mmHg); assay type: functional
[10] = system: Rattus norvegicus; assay: Hypotensive activity in normotensive anesthetized Wistar rat assessed as systolic blood pressure at 0.5 mg/kg, iv measured 5 mins post dose (reference value: 107.4 to 148.3 mmHg); assay type: functional
[11] = system: Rattus norvegicus; assay: Hypotensive activity in normotensive anesthetized Wistar rat assessed as diastolic blood pressure at 0.5 mg/kg, iv measured 20 mins post dose (reference value: 81.6 to 115.2 mmHg); assay type: functional
[12] = system: Rattus norvegicus; assay: Hypotensive activity in normotensive anesthetized Wistar rat assessed as systolic blood pressure at 0.5 mg/kg, iv measured 60 mins post dose (reference value: 107.4 to 148.3 mmHg); assay type: functional
[13] = system: Rattus norvegicus; assay: Hypotensive activity in normotensive anesthetized Wistar rat assessed as diastolic blood pressure at 0.5 mg/kg, iv measured 30 mins post dose (reference value: 81.6 to 115.2 mmHg); assay type: functional
[14] = system: Rattus norvegicus; assay: Hypotensive activity in normotensive anesthetized Wistar rat assessed as diastolic blood pressure at 0.5 mg/kg, iv measured 10 mins post dose (reference value: 81.6 to 115.2 mmHg); assay type: functional
[15] = system: Rattus norvegicus; assay: Hypotensive activity in normotensive anesthetized Wistar rat assessed as diastolic blood pressure at 0.1 mg/kg, iv measured 10 mins post dose (reference value: 81.6 to 115.2 mmHg); assay type: functional
[16] = system: Rattus norvegicus; assay: Hypotensive activity in normotensive anesthetized Wistar rat assessed as systolic blood pressure at 0.5 mg/kg, iv measured 30 mins post dose (reference value: 107.4 to 148.3 mmHg); assay type: functional
[17] = system: Rattus norvegicus; assay: Hypotensive activity in normotensive anesthetized Wistar rat assessed as diastolic blood pressure at 0.5 mg/kg, iv measured 5 mins post dose (reference value: 81.6 to 115.2 mmHg); assay type: functional
[18] = system: Rattus norvegicus; assay: Hypotensive activity in normotensive anesthetized Wistar rat assessed as systolic blood pressure at 0.5 mg/kg, iv measured 20 mins post dose (reference value: 107.4 to 148.3 mmHg); assay type: functional

| Compound | Ratio Ki [1] | Ki [3] [nM] | Activity [2] [mmHg] | TIME [4] [h] | Activity [5] | Activity [6] [mmHg] | Activity [7] [mmHg] | Activity [8] [mmHg] | Activity [9] [mmHg] | Activity [10] [mmHg] | Activity [11] [mmHg] | Activity [12] [mmHg] | Activity [13] [mmHg] | Activity [14] [mmHg] | Activity [15] [mmHg] | Activity [16] [mmHg] | Activity [17] [mmHg] | Activity [18] [mmHg] |
| --- | --- | --- | --- | --- | --- | --- | --- | --- | --- | --- | --- | --- | --- | --- | --- | --- | --- | --- |
| Cc1cccc(OCCCN2CCN(c3ccccc3)CC2)c1C.Cl.Cl | 24.6 | 33 | 133.3 | – | – | – | – | – | – | – | – | – | – | – | – | – | – | – |
| COc1ccccc1N1CCN(CCOCCOc2cccc(C)c2C)CC1.Cl.Cl | 31.3 | 28.5 | 132.6 | 0.0339 | 232.5 | – | – | – | – | – | – | – | – | – | – | – | – | – |
| Cc1cccc(Cl)c1OCCCCN1CCN(c2ccccc2)CC1.Cl.Cl | 8.48 | 59.6 | 120 | 0.0416 | 152.4 | 135.3 | 97 | – | – | 135 | 102.5 | 130.8 | 101.5 | 101 | – | 131.5 | 100.5 | 138 |

Second part, led by results:

| Ratio Ki [1] | Ki [3] [nM] | Compound | Activity [2] [mmHg] | TIME [4] [h] | Activity [5] | Activity [6] [mmHg] | Activity [7] [mmHg] | Activity [8] [mmHg] | Activity [9] [mmHg] | Activity [10] [mmHg] | Activity [11] [mmHg] | Activity [12] [mmHg] | Activity [13] [mmHg] | Activity [14] [mmHg] | Activity [15] [mmHg] | Activity [16] [mmHg] | Activity [17] [mmHg] | Activity [18] [mmHg] |
| --- | --- | --- | --- | --- | --- | --- | --- | --- | --- | --- | --- | --- | --- | --- | --- | --- | --- | --- |
| 1.82 | 159 | Cc1cccc(OCCN2CCN(c3ccccc3)CC2)c1C.Cl.Cl | 93.4 | – | – | – | – | – | – | – | – | – | – | – | – | – | – | – |
| 15.8 | 23.5 | COc1ccccc1N1CCN(CCCCOc2c(C)cccc2C)CC1.Cl | 124.7 | – | – | 122.7 | 94.3 | 104 | 101.3 | 124.2 | 99.8 | 115.3 | 98.8 | 100.8 | 112.7 | 119.3 | 102 | 121.7 |
